Source: patent US20180228728A1, “DOSAGE FORM FOR ADMINISTRATION OF OPIOID ANTAGONISTS” (priority 2017, published 2018)

Test system: cultured human gingival tissues
Type: in vitro ADME
Settings: as excipient in naloxone ODF
Description: Each ODF sample was die-cut into 1 inch (2.54 cm) diameter discs (area, 5.067 cm^2). To simulate the oral mucosa, an in vitro oral mucosa 3D model produced from primary human gingival keratinocytes was used (SkinAxis, LLC, North Brunswick, N.J., USA). Briefly, the cultured human gingival tissues were incubated in 6-well plates at 37° C. in a CO2 incubator. To prepare the receiver fluid, 0.3 mL of prewarmed phosphate buffered solution at pH 6.8 was pipetted into each well. Next, 0.5 mL of donor solution or the die-cut discs were placed onto the tissues. The plates were returned to the incubator for 15 minutes. The tissues were moved to the next wells and the receiver media was collected. This was repeated for the remaining time points. The receiver media was analyzed by HPLC in a 5 μm, 4.6×50 mm KINETEX C18 column (Phenomenex, Inc., Torrance, Calif., USA) using art standard protocols. Briefly, the mobile phase comprised 50 mM NH4Ac/Acetonitrile at 88/22. The flow rate was 1.0 mL/min and the column temperature was about 40° C. with a UV of 220 nm and a retention time of 1.8 min.

Question: `CCCCCCCC/C=C\CCCCCCCCO` [oleyl alcohol, Oleyl alcohol] was tested. Which “effect of permeation enhancer on permeation percentage of the naloxone” value did it give?
Answer: The value was “increased the permeation percentage of the naloxone”.
